Here are results for one molecule from paper PMC5218480 (PLoS ONE, 2017).

The experiment deals with MV-4-11 cells. The experiment can be described thus: Gene expression microarray analysis (Affymetrix PrimeView) and GSEA. The format is cell-based, human. Details: RFU PODN (11730768_x_at) / Fold change /veh PODN (11730768_x_at) / RFU LINC00158 (11744669_a_at) / Fold change /veh LINC00158 (11744669_a_at) / RFU DUSP10 (11751237_a_at) / Fold change /veh DUSP10 (11751237_a_at) / RFU ID3 (11757404_x_at) / Fold change /veh ID3 (11757404_x_at) / RFU PLEKHG5 (11737974_s_at) / Fold change /veh PLEKHG5 (11737974_s_at) / RFU LRRC4B (11730491_at) / Fold change /veh LRRC4B (11730491_at) / RFU GIMAP4 (11747438_a_at) / Fold change /veh GIMAP4 (11747438_a_at) / RFU KRT8 (11758183_x_at) / Fold change /veh KRT8 (11758183_x_at) / RFU CNN1 (11734310_a_at) / Fold change /veh CNN1 (11734310_a_at) / RFU VPS37D (11726825_at) / Fold change /veh VPS37D (11726825_at) / RFU C10orf10 (11716522_x_at) / Fold change /veh C10orf10 (11716522_x_at) / RFU KIR2DL2 /// KIR2DL4 /// KIR2DL5A /// KIR2DL5B /// KIR2DS1 /// KIR2DS2 /// KIR2DS3 /// KIR2DS4 /// KIR3DL3 /// KIR3DL3 /// KIR3DS1 (11738374_at) / Fold change /veh KIR2DL2 /// KIR2DL4 /// KIR2DL5A /// KIR2DL5B /// KIR2DS1 /// KIR2DS2 /// KIR2DS3 /// KIR2DS4 /// KIR3DL3 /// KIR3DL3 /// KIR3DS1 (11738374_at) / RFU C1QL1 (11718748_at) / Fold change /veh C1QL1 (11718748_at) / RFU TMPRSS4 (11747572_a_at) / Fold change /veh TMPRSS4 (11747572_a_at) / RFU HAMP (11756126_x_at) / Fold change /veh HAMP (11756126_x_at) / RFU RNFT2 (11725882_a_at) / Fold change /veh RNFT2 (11725882_a_at) / RFU NR4A2 (11747474_a_at) / Fold change /veh NR4A2 (11747474_a_at) / RFU ABCC12 (11746883_a_at) / Fold change /veh ABCC12 (11746883_a_at) / RFU TMEM136 (11760407_x_at) / Fold change /veh TMEM136 (11760407_x_at) / RFU CLDN22 /// WWC2 (11732394_at) / Fold change /veh CLDN22 /// WWC2 (11732394_at) / RFU HLA-DPB1 (11760878_x_at) / Fold change /veh HLA-DPB1 (11760878_x_at) / RFU SPINT1 (11716480_a_at) / Fold change /veh SPINT1 (11716480_a_at) / RFU GAP43 (11754022_s_at) / Fold change /veh GAP43 (11754022_s_at) / RFU A4GNT (11735810_at) / Fold change /veh A4GNT (11735810_at) / RFU PRB3 (11715151_x_at) / Fold change /veh PRB3 (11715151_x_at) / RFU TUBB4B (11761932_at) / Fold change /veh TUBB4B (11761932_at) / RFU CAPN14 (11732068_a_at) / Fold change /veh CAPN14 (11732068_a_at) / RFU TMCC2 (11721928_a_at) / Fold change /veh TMCC2 (11721928_a_at) / RFU IRGQ (11745062_a_at) / Fold change /veh IRGQ (11745062_a_at) / RFU FAM174B (11720279_a_at) / Fold change /veh FAM174B (11720279_a_at) / RFU TMPRSS4 (11748680_a_at) / Fold change /veh TMPRSS4 (11748680_a_at) / RFU FAM212B (11763350_a_at) / Fold change /veh FAM212B (11763350_a_at) / RFU PLEKHG5 (11743358_a_at) / Fold change /veh PLEKHG5 (11743358_a_at) / RFU ZSCAN30 (11745921_a_at) / Fold change /veh ZSCAN30 (11745921_a_at) / RFU CMKLR1 (11741424_a_at) / Fold change /veh CMKLR1 (11741424_a_at) / RFU LOC101060620 /// MAPK8IP1 (11723275_at) / Fold change /veh LOC101060620 /// MAPK8IP1 (11723275_at) / RFU SPTSSB (11747773_x_at) / Fold change /veh SPTSSB (11747773_x_at) / RFU PRSS12 (11739890_at) / Fold change /veh PRSS12 (11739890_at) / RFU BIN1 (11741810_x_at) / Fold change /veh BIN1 (11741810_x_at) / RFU WNT11 (11732464_a_at) / Fold change /veh WNT11 (11732464_a_at) / RFU C10orf10 (11716521_a_at) / Fold change /veh C10orf10 (11716521_a_at) / RFU C5orf56 (11738089_at) / Fold change /veh C5orf56 (11738089_at) / RFU CYB561 (11721691_x_at) / Fold change /veh CYB561 (11721691_x_at) / RFU ANKRD19P (11752326_a_at) / Fold change /veh ANKRD19P (11752326_a_at) / RFU OR2T12 /// OR2T33 /// OR2T8 (11738714_s_at) / Fold change /veh OR2T12 /// OR2T33 /// OR2T8 (11738714_s_at) / RFU VCAN (11748164_a_at) / Fold change /veh VCAN (11748164_a_at) / RFU JSRP1 (11732532_at) / Fold change /veh JSRP1 (11732532_at) / RFU KRTAP10-11 (11738290_x_at) / Fold change /veh KRTAP10-11 (11738290_x_at) / RFU MYO3A (11730013_a_at) / Fold change /veh MYO3A (11730013_a_at) / RFU EBF3 (11725865_a_at) / Fold change /veh EBF3 (11725865_a_at) / RFU CAMK2N1 (11719241_x_at) / Fold change /veh CAMK2N1 (11719241_x_at) / RFU C5orf56 (11738088_a_at) / Fold change /veh C5orf56 (11738088_a_at) / RFU OLFML3 (11715873_a_at) / Fold change /veh OLFML3 (11715873_a_at) / RFU LOC100653217 /// NTM (11731650_a_at) / Fold change /veh LOC100653217 /// NTM (11731650_a_at) / RFU MAPK11 (11762145_a_at) / Fold change /veh MAPK11 (11762145_a_at) / RFU FIZ1 (11724087_x_at) / Fold change /veh FIZ1 (11724087_x_at) / RFU OASL (11726364_x_at) / Fold change /veh OASL (11726364_x_at) / RFU SOX15 (11748057_x_at) / Fold change /veh SOX15 (11748057_x_at) / RFU CD79A (11719716_a_at) / Fold change /veh CD79A (11719716_a_at) / RFU HIST1H1D (11736915_at) / Fold change /veh HIST1H1D (11736915_at) / RFU CASKIN2 (11723855_a_at) / Fold change /veh CASKIN2 (11723855_a_at) / RFU LOC730098 (11760151_x_at) / Fold change /veh LOC730098 (11760151_x_at) / RFU OR4N2 (11742367_at) / Fold change /veh OR4N2 (11742367_at) / RFU PRRT2 (11749266_a_at) / Fold change /veh PRRT2 (11749266_a_at) / RFU SNX32 (11753110_a_at) / Fold change /veh SNX32 (11753110_a_at) / RFU CDHR5 (11726645_a_at) / Fold change /veh CDHR5 (11726645_a_at) / RFU RCAN1 (11760418_a_at) / Fold change /veh RCAN1 (11760418_a_at) / RFU FAM167A (11723789_a_at) / Fold change /veh FAM167A (11723789_a_at) / RFU FAM26E (11764081_at) / Fold change /veh FAM26E (11764081_at) / RFU ISYNA1 (11749810_s_at) / Fold change /veh ISYNA1 (11749810_s_at) / RFU ACY1 (11761880_at) / Fold change /veh ACY1 (11761880_at) / RFU 11764098_at / Fold change /veh 11764098_at / RFU SAMD14 (11745864_x_at) / Fold change /veh SAMD14 (11745864_x_at) / RFU NPB (11741838_a_at) / Fold change /veh NPB (11741838_a_at) / RFU TMPRSS6 (11731388_a_at) / Fold change /veh TMPRSS6 (11731388_a_at) / RFU KRTAP10-2 (11738614_at) / Fold change /veh KRTAP10-2 (11738614_at) / RFU ARHGAP8 /// PRR5-ARHGAP8 (11727945_x_at) / Fold change /veh ARHGAP8 /// PRR5-ARHGAP8 (11727945_x_at) / RFU KRTAP5-7 /// NADSYN1 (11734609_at) / Fold change /veh KRTAP5-7 /// NADSYN1 (11734609_at) / RFU RASL12 (11751679_a_at) / Fold change /veh RASL12 (11751679_a_at) / RFU CDKN2B (11736163_a_at) / Fold change /veh CDKN2B (11736163_a_at) / RFU PRF1 (11729649_at) / Fold change /veh PRF1 (11729649_at) / RFU, ZNF638 /// ZNF638-IT1 / Fold change vs veh, ZNF638 /// ZNF638-IT1 / RFU, PANK3 / Fold change vs veh, PANK3 / RFU, SH3YL1 / Fold change vs veh, SH3YL1 / RFU, ZEB2 / Fold change vs veh, ZEB2 / RFU, NRIP1 / Fold change vs veh, NRIP1 / RFU, PTTG1IP / Fold change vs veh, PTTG1IP / RFU, CAPN2 / Fold change vs veh, CAPN2 / RFU, MED14 / Fold change vs veh, MED14 / RFU, SNORA58 / Fold change vs veh, SNORA58 / RFU, C1orf63 / Fold change vs veh, C1orf63 / RFU, LRRFIP1 / Fold change vs veh, LRRFIP1 / RFU, NDUFAF7 / Fold change vs veh, NDUFAF7 / RFU, SLC12A2 / Fold change vs veh, SLC12A2 / RFU, IBTK / Fold change vs veh, IBTK / RFU, ESF1 / Fold change vs veh, ESF1 / Fold change vs veh, TMEM50B / RFU, TAOK1 / Fold change vs veh, TAOK1 / RFU, ACBD3 / Fold change vs veh, ACBD3 / RFU, TMA16 / Fold change vs veh, TMA16 / RFU, RWDD3 / Fold change vs veh, RWDD3 / RFU, BCAT1 / Fold change vs veh, BCAT1 / RFU, EDEM3 / Fold change vs veh, EDEM3 / RFU, TMEM33 / Fold change vs veh, TMEM33 / RFU, WDR75 / Fold change vs veh, WDR75 / RFU, AHCTF1 / Fold change vs veh, AHCTF1 / RFU, TFRC / Fold change vs veh, TFRC / RFU, ZDHHC17 / Fold change vs veh, ZDHHC17 / RFU, NOM1 / Fold change vs veh, NOM1 / RFU, ARL8B / Fold change vs veh, ARL8B / RFU, ZBTB11 / Fold change vs veh, ZBTB11 / RFU, TAMM41 / Fold change vs veh, TAMM41 / RFU, KIAA1704 /// LOC100996395 / Fold change vs veh, KIAA1704 /// LOC100996395 / RFU, ING1 / Fold change vs veh, ING1 / RFU, TRMT61B / Fold change vs veh, TRMT61B / RFU, FUBP3 / Fold change vs veh, FUBP3 / RFU, TP53 / Fold change vs veh, TP53 / RFU, TNKS2 / Fold change vs veh, TNKS2 / RFU, ZFP14 / Fold change vs veh, ZFP14 / RFU, ACTR2 / Fold change vs veh, ACTR2 / RFU, PPP3R1 / Fold change vs veh, PPP3R1 / RFU, PIK3R1 / Fold change vs veh, PIK3R1 / RFU, HNRNPA1 / Fold change vs veh, HNRNPA1 / RFU, RNF170 / Fold change vs veh, RNF170 / RFU, ZNF28 / Fold change vs veh, ZNF28 / RFU, RNGTT / Fold change vs veh, RNGTT / RFU, OGT / Fold change vs veh, OGT / RFU, BRD1 / Fold change vs veh, BRD1 / RFU, MARS / Fold change vs veh, MARS / RFU, ZNF655 / Fold change vs veh, ZNF655 / RFU, FAHD1 / Fold change vs veh, FAHD1 / RFU, BDP1 / Fold change vs veh, BDP1 / RFU, LRRCC1 / Fold change vs veh, LRRCC1 / RFU, ARID1A / Fold change vs veh, ARID1A / RFU, ZNF146 / Fold change vs veh, ZNF146 / RFU, ZNF330 / Fold change vs veh, ZNF330 / RFU, GPN3 / Fold change vs veh, GPN3 / RFU, C9orf123 / Fold change vs veh, C9orf123 / RFU, N4BP2L2 / Fold change vs veh, N4BP2L2 / RFU, ARFIP1 / Fold change vs veh, ARFIP1 / RFU, FAM179B / Fold change vs veh, FAM179B / RFU, BCL10 / Fold change vs veh, BCL10 / RFU, UHRF1BP1L / Fold change vs veh, UHRF1BP1L / RFU, BET1 / Fold change vs veh, BET1 / RFU, CNOT2 / Fold change vs veh, CNOT2 / RFU, ZNF268 / Fold change vs veh, ZNF268 / Fold change vs veh, ZNF507 / RFU, DGCR2 / Fold change vs veh, DGCR2 / RFU, WDSUB1 / Fold change vs veh, WDSUB1 / Fold change vs veh, HSP90B1 /// MIR3652 / RFU, ADSS / Fold change vs veh, ADSS / RFU, GK / Fold change vs veh, GK / RFU, ZNF148 / Fold change vs veh, ZNF148 / RFU, TAF9 / Fold change vs veh, TAF9 / RFU, SLC1A5 / Fold change vs veh, SLC1A5 / RFU, SLMO2 / Fold change vs veh, SLMO2 / RFU, ABCC4 / Fold change vs veh, ABCC4 / RFU, LOC101060439 /// RAP1B / Fold change vs veh, LOC101060439 /// RAP1B / RFU, RFX7 / Fold change vs veh, RFX7 / RFU, GTPBP10 / Fold change vs veh, GTPBP10 / RFU, CNEP1R1 / Fold change vs veh, CNEP1R1 / RFU, BIVM-ERCC5 /// ERCC5 / Fold change vs veh, BIVM-ERCC5 /// ERCC5 / RFU, ILF3 / Fold change vs veh, ILF3 / RFU 11762660_at / Fold change /veh 11762660_at / RFU VCAN (11757783_s_at) / Fold change /veh VCAN (11757783_s_at) / RFU DDX43 (11728927_at) / Fold change /veh DDX43 (11728927_at) / RFU KRT8 (11758188_x_at) / Fold change /veh KRT8 (11758188_x_at) / RFU NKD1 (11759106_at) / Fold change /veh NKD1 (11759106_at) / RFU SRD5A1 (11742802_a_at) / Fold change /veh SRD5A1 (11742802_a_at) / RFU TPSAB1 /// TPSB2 (11721975_s_at) / Fold change /veh TPSAB1 /// TPSB2 (11721975_s_at) / RFU GSTM3 (11746129_a_at) / Fold change /veh GSTM3 (11746129_a_at) / RFU IL23R (11737362_x_at) / Fold change /veh IL23R (11737362_x_at) / RFU TMEM51 (11727254_a_at) / Fold change /veh TMEM51 (11727254_a_at) / RFU PIWIL2 (11732686_x_at) / Fold change /veh PIWIL2 (11732686_x_at) / RFU ORM1 (11744905_x_at) / Fold change /veh ORM1 (11744905_x_at) / RFU CCDC152 (11743942_at) / Fold change /veh CCDC152 (11743942_at) / RFU ECM1 (11717891_a_at) / Fold change /veh ECM1 (11717891_a_at) / RFU IL23R (11748794_a_at) / Fold change /veh IL23R (11748794_a_at) / RFU TNFAIP8L3 (11732012_x_at) / Fold change /veh TNFAIP8L3 (11732012_x_at) / RFU MBOAT4 (11741988_at) / Fold change /veh MBOAT4 (11741988_at) / RFU 11764193_at / Fold change /veh 11764193_at / RFU TMEM53 (11763286_at) / Fold change /veh TMEM53 (11763286_at) / RFU MAGEB2 (11727129_at) / Fold change /veh MAGEB2 (11727129_at) / RFU TMEM200A (11744735_a_at) / Fold change /veh TMEM200A (11744735_a_at) / RFU CCDC152 (11751479_a_at) / Fold change /veh CCDC152 (11751479_a_at) / RFU FAM211A (11726209_a_at) / Fold change /veh FAM211A (11726209_a_at) / RFU RGS16 (11746705_a_at) / Fold change /veh RGS16 (11746705_a_at) / RFU VCAN (11755009_s_at) / Fold change /veh VCAN (11755009_s_at) / RFU RHOB (11743442_s_at) / Fold change /veh RHOB (11743442_s_at) / RFU RGS16 (11720943_a_at) / Fold change /veh RGS16 (11720943_a_at) / RFU RGS16 (11720944_at) / Fold change /veh RGS16 (11720944_at) / RFU, VPS4B / Fold change vs veh, VPS4B / RFU, CREB1 / Fold change vs veh, CREB1 / RFU, DNAJC13 / Fold change vs veh, DNAJC13 / RFU, GNAQ / Fold change vs veh, GNAQ / RFU, CDK5R1 / Fold change vs veh, CDK5R1 / RFU, ZRANB3 / Fold change vs veh, ZRANB3 / RFU, CUL4A / Fold change vs veh, CUL4A / RFU, CCNY / Fold change vs veh, CCNY / RFU, UFL1 / Fold change vs veh, UFL1 / RFU, COG3 / Fold change vs veh, COG3 / RFU, DIAPH2 / Fold change vs veh, DIAPH2 / RFU, SKA2 / Fold change vs veh, SKA2 / RFU, AFF3 / Fold change vs veh, AFF3 / RFU, LMF1 / Fold change vs veh, LMF1 / RFU, IPO11 / Fold change vs veh, IPO11 / RFU, DFFB / Fold change vs veh, DFFB / RFU, FOXP1 / Fold change vs veh, FOXP1 / RFU, CARD8 / Fold change vs veh, CARD8 / RFU, STRN3 / Fold change vs veh, STRN3 / RFU, ADK / Fold change vs veh, ADK / RFU, RASSF2 / Fold change vs veh, RASSF2 / RFU, WIPF1 / Fold change vs veh, WIPF1 / RFU, LARP1B / Fold change vs veh, LARP1B / RFU, RASA1 / Fold change vs veh, RASA1 / RFU, RB1 / Fold change vs veh, RB1 / RFU, PPFIA1 / Fold change vs veh, PPFIA1 / RFU, MAT2A / Fold change vs veh, MAT2A / RFU, CCT5 / Fold change vs veh, CCT5 / RFU, WDR92 / Fold change vs veh, WDR92 / RFU, CUX1 / Fold change vs veh, CUX1 / RFU, TTC7A / Fold change vs veh, TTC7A / RFU, TMEM135 / Fold change vs veh, TMEM135 / RFU, DEPTOR / Fold change vs veh, DEPTOR / RFU, CPM / Fold change vs veh, CPM / RFU, DNAJB6 / Fold change vs veh, DNAJB6 / RFU, CACNA2D3 / Fold change vs veh, CACNA2D3 / RFU, DTX4 / Fold change vs veh, DTX4 / RFU, TFCP2 / Fold change vs veh, TFCP2 / RFU, GMCL1 /// GMCL1P1 / Fold change vs veh, GMCL1 /// GMCL1P1 / RFU, AEBP2 / Fold change vs veh, AEBP2 / RFU, SNHG1 /// SNORD22 /// SNORD25 /// SNORD26 /// SNORD27 /// SNORD28 /// SNORD29 /// SNORD31 / Fold change vs veh, SNHG1 /// SNORD22 /// SNORD25 /// SNORD26 /// SNORD27 /// SNORD28 /// SNORD29 /// SNORD31 / Fold change (Aza/veh), C12orf56 (ProbeSet 11735607_a_at) / Fold change (ACY-1035/veh), C12orf56 (ProbeSet 11735607_a_at) / Fold change (Aza/veh), FGFR1OP (ProbeSet 11751329_s_at) / Fold change (ACY-1035/veh), FGFR1OP (ProbeSet 11751329_s_at) / Fold change (Aza/veh), VPS36 (ProbeSet 11739960_a_at) / Fold change (ACY-1035/veh), VPS36 (ProbeSet 11739960_a_at) / RFU SYPL1 (11715823_x_at) / Fold change /veh SYPL1 (11715823_x_at) / RFU IGFBP7 (11715501_s_at) / Fold change /veh IGFBP7 (11715501_s_at) / RFU REEP3 (11722064_at) / Fold change /veh REEP3 (11722064_at) / RFU IGLL1 (11728026_x_at) / Fold change /veh IGLL1 (11728026_x_at): dose or concentration left out as unconfirmed. The settings on record: MV-4-11 cells, 48 hours.

In the case of `Nc1ccc(-c2cccs2)cc1NC(=O)c1ccc2c(c1)cc(C1CC1)n2CCN1CCOCC1` [ACY-1035], the “Fold change /veh CASKIN2 (11723855_a_at)” value is 1.05.
